Consider 3 molecules from ChEMBL document CHEMBL1158644, “An investigation of the antitumor activity of Micromelum integerrimum (Rutaceae)” (1979).

The subject of one experiment is 9KB. The experiment can be described thus: Cytotoxicity against human 9KB cells. It counts as functional, cell-based.
The test system of another experiment is CA-755. The experiment can be described thus: In vivo antitumor activity against mouse CA-755 cells at 100 mg/kg. It counts as functional.
Another experiment deals with L1210. Nature of the experiment: Cytotoxicity against mouse L1210 cells. It counts as functional, cell-based.
The test system of a further experiment is CCRF S-180. The experiment can be described thus: Cytotoxicity against mouse S180 cells. It counts as functional, cell-based.
Experiment [1] deals with P388. The experiment can be described thus: In vivo antitumor activity against mouse P388 cells at 400 mg/kg. It counts as functional.
Experiment [2] relates to Lewis lung carcinoma cell line. Nature of the experiment: In vivo antitumor activity against mouse LLC at 1.25 mg/kg. It counts as functional.
The test system of experiment [3] is P388. Nature of the experiment: In vivo antitumor activity against mouse P388 cells at 10 mg/kg. It counts as functional.

The source made the active and inactive calls. The calls are words filed in the database; no cut-off is given here.

For `COc1cc2oc(=O)ccc2cc1C1C=C(C)C(=O)O1` (centres undefined), the result in the experiment on 9KB was inactive.
Usually T/C stands for the result in the treated group divided by that in the control group, in per cent. As to `COc1cc2ccc(=O)oc2cc1O` [SCOPOLETIN], the result in the experiment on 9KB, in the experiment on L1210 and with CCRF S-180 was inactive. The T/C with CA-755 was 48%; in the experiment with P388 [1], 130%.
For the molecule `COc1cc2oc(=O)ccc2cc1C1OC(=O)[C@]2(C)O[C@H]12` (some centres undefined), the outcome with 9KB was inactive. Also, the T/C in experiment [2] was 228%; in the experiment on P388 [3] it was 149%.
